In patent publication US20050250836A1, “Inhibitors of checkpoint kinases (Wee1 and Chk1)” (Pfizer Inc, priority 2004, published 2005):

melting point | SMILES
310 to 313 °C | Cl.NCCCn1cc(Br)c2c3c(c(-c4ccccc4Cl)cc21)C(=O)NC3=O
243 to 245 °C | COc1ccccc1-c1cc2c(ccn2C)c2c1C(=O)NC2=O [Example 27, 4-(2-Methoxyphenyl)-6-methyl-6H-2,6-diaza-as-indacene-1,3-dione]
216 to 220 °C | COc1ccccc1-c1cc2c(c(Br)cn2C)c2c1C(=O)NC2=O [Example 28, 8-Bromo-4-(2-methoxyphenyl)-6-methyl-6H-2,6-diaza-as-indacene-1,3-dione]
267 to 271 °C | COc1ccccc1-c1cc2c(c(Cl)cn2C)c2c1C(=O)NC2=O [Example 30, 8-Chloro-4-(2-methoxyphenyl)-6-methyl-6H-2,6-diaza-as-indacene-1,3-dione]
240 to 243 °C | CSc1ccccc1-c1cc2c(c(Br)cn2C)c2c1C(=O)NC2=O [Example 31, 8-Bromo-6-methyl-4-(2-methylsulfanylphenyl)-6H-2,6-diaza-as-indacene-1,3-dione]
150 to 154 °C (dec.) | Cn1cc(I)c2c3c(c(-c4ccccc4Cl)cc21)C(=O)NC3=O [Example 32, 4-(2-Chlorophenyl)-8-iodo-6-methyl-6H-2,6-diaza-as-indacene-1,3-dione]
268 to 272 °C | COc1cccc(Cl)c1-c1cc2c(ccn2C)c2c1C(=O)NC2=O [Example 33, 4-(2-Chloro-6-methoxyphenyl)-6-methyl-6H-2,6-diaza-as-indacene-1,3-dione]
238 to 242 °C | COc1cccc(Cl)c1-c1cc2c(c(Br)cn2C)c2c1C(=O)NC2=O [Example 34, 8-Bromo-4-(2-chloro-6-methoxyphenyl)-6-methyl-6H-2,6-diaza-as-indacene-1,3-dione]
173 °C | CCOCCOCCn1ccc2c3c(c(-c4ccccc4Cl)cc21)C(=O)NC3=O [Example 35, 4-(2-Chlorophenyl)-6-[2-(2-ethoxyethoxy)ethyl]-6H-2,6-diaza-as-indacene-1,3-dione]
108 to 110 °C | CCOCCOCCn1cc(Br)c2c3c(c(-c4ccccc4Cl)cc21)C(=O)NC3=O [Example 36, 8-Bromo-4-(2-chlorophenyl)-6-[2-(2-ethoxyethoxy)ethyl]-6H-2,6-diaza-as-indacene-1,3-dione]
225 to 227 °C | O=C1NC(=O)c2c1c(-c1ccccc1Cl)cc1c2ccn1CCCO [Example 42, 4-(2-Chlorophenyl)-6-(3-hydroxypropyl)-6H-2,6-diaza-as-indacene-1,3-dione]
171 to 172 °C | COCCCn1ccc2c3c(c(-c4ccccc4Cl)cc21)C(=O)NC3=O [Example 43, 4-(2-Chlorophenyl)-6-(3-methoxypropyl)-6H-2,6-diaza-as-indacene-1,3-dione]
149 to 151 °C | COCCCn1cc(Br)c2c3c(c(-c4ccccc4Cl)cc21)C(=O)NC3=O [Example 44, 8-Bromo-4-(2-chlorophenyl)-6-(3-methoxypropyl)-6H-2,6-diaza-as-indacene-1,3-dione]
235 to 237 °C | CCOC(=O)c1cc2c3c(c(-c4ccccc4Cl)cc2n1CCCOC)C(=O)NC3=O [Example 46, 4-(2-Chlorophenyl)-6-(3-methoxypropyl)-1,3-dioxo-1,2,3,6-tetrahydro-2,6-diaza-as-indacene-7-carboxylic acid ethyl ester]
272 to 274 °C | COCCCn1c(C(=O)O)cc2c3c(c(-c4ccccc4Cl)cc21)C(=O)NC3=O [Example 47, 4-(2-Chlorophenyl)-6-(3-methoxypropyl)-1,3-dioxo-1,2,3,6-tetrahydro-2,6-diaza-as-indacene-7-carboxylic acid]
249 to 251 °C | CCOC(=O)c1cc2c3c(c(-c4ccccc4Cl)cc2n1CCCO)C(=O)NC3=O [Example 48 (ii), 4-(2-Chlorophenyl)-6-(3-hydroxypropyl)-1,3-dioxo-1,2,3,6-tetrahydro-2,6-diaza-as-indacene-7-carboxylic acid ethyl ester]
